Data from US9517230B2, “Small molecule RNase inhibitors and methods of use” (UNIVERSITY OF ROCHESTER, priority 2011, dated 2016).
Entries after “also recorded” stand apart in the source; their conditions may differ.

Experiments:
HepG2 human hepatocytes = assay: HepG2 MTT cytotoxicity assay; format: cell-based; details: 1×, 2×, 4× the MIC value for 48 hours
Experimental: It was then assessed whether RnpA-inhibitory agent concentrations corresponding to the effective bacterial MIC values (10-50 μg/ml) elicited human cell cytotoxicity. HepG2 human hepatocytes (10^5 cells) were seeded in individual wells of a microtitre plate and incubated for 16 hr at 37° C. with 5% carbon dioxide in Dulbecco's Modified Eagle Media supplemented with 10% fetal bovine serum. Cells were then challenged with Mitomycin C (5 or 10 μg/ml; positive control) or 1, 2, or 4 times (1×, 2×, 4×) the MIC value of the indicated RnpA inhibitory compound for 48 hours. Cell viability was measured spectrophotometrically (570 nm) following the addition and subsequent reduction of tetrazolium salt (MTT) within metabolically active cells, as per the manufacturer's recommendations (American Type Culture Collection; Manassas, Va.).

MRSA = assay: Antimicrobial susceptibility testing, broth microdilution (CLSI); format: cell-based, Staphylococcus aureus; details: 18 hr at 37° C.
Description: In some examples, compounds can be further assayed using the Mueller Hinton (MH) broth antibacterial assay as specified by the Clinical and Laboratory Standards Institute MIC broth microdilution protocol (see Methods for Dilution Antimicrobial Susceptibility Tests for Bacteria That Grow Aerobically; Approved Standard, In The Clinical and Laboratory Standards Institute (CLSI, formerly NCCLS), 7th ed., January 2006, 26 (2), M7-A7; see also Performance Standards for Antimicrobial Susceptibility Testing; Eighteenth Informational Supplement, In The Clinical and Laboratory Standards Institute (CLSI, formerly NCCLS), January 2008, 28 (1), M100-S18).
Microtiter plates containing serial dilutions of the compounds 1000 (0, 4, 8, 16, 32, 64, and 128 μg/ml) were inoculated with 10^5 colony forming units (CFU)/ml and incubated for 18 hr at 37° C.

S. aureus RnpA = biological target: T1, S. aureus RnpA (Staphylococcus aureus, UniProt P0A0H5); assay: RnpA-mediated RNA (spa mRNA) degradation inhibitory titration assay; format: biochemical; details: for IC50: 1 pmol spa mRNA, 20 pmol RnpA, one hour at 37° C., agarose gel, read-out: apparent IC50
T1 construct: hexahistidine-tag (pET-30 Ek/LIC leader) (N); made in house; host or cells: E. coli BL21 (DE3)
T1 sequence (P0A0H5 1-117): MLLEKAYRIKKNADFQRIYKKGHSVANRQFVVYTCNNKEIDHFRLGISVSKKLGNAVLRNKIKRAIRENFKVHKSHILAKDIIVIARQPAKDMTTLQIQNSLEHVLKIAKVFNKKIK
Experimental: Specifically, members of the ActiProbe-25K and Natural Product libraries (29,940 compounds total; TimTec Inc.; Newark, Del.) were screened for small molecule inhibitors of S. aureus RnpA mediated total bacterial RNA degradation. All reactions (50 μl) were performed in 96-well format and contained 20 pmol RnpA, 200 ng S. aureus total RNA, and ˜5 μM of each compound in 1× reaction buffer (2 mM NaCl, 2 mM MgCl2, 50 mM Tris-HCl, pH 6.0). Mixtures were incubated at 37° C. for 20 min at which time Quant-iT RiboGreen® (100 μl; Invitrogen) was added to quantify the amount of RNA substrate remaining. Percent enzyme inhibition was calculated as remaining substrate/starting substrate*100. For inhibitory titration assays, 1 pmol of spa mRNA was incubated with 20 pmol RnpA alone (positive control) or in the presence of one of four compounds for one hour at 37° C. […] Following this, 20 μl of each reaction mixture were subjected to electrophoresis in a 1.2% formaldehyde-containing agarose gel and visualized by ethidium bromide staining.

IC50 (S. aureus RnpA)	Structure (SMILES)	human cell cytotoxicity / cell survival (in words) (HepG2 human hepatocytes)	human cell cytotoxicity / cell survival (in words) (HepG2 human hepatocytes; listed as ST003531)	antimicrobial activity against MRSA (in words) (MRSA)	inhibition of RnpA-mediated RNA degradation (in words) (S. aureus RnpA)	human cell cytotoxicity / cell survival (in words) (HepG2 human hepatocytes; listed as ST006630)
15 to 20 µM	CC(C)c1ccc(OCC(=O)NNC(=S)NC(=O)c2ccco2)cc1 [RNPA-2000]	do not cause human cytotoxicity	did not affect human cell survival	moderate antimicrobial activity; also recorded: good antistaphylococcal activity	inhibit RnpA-mediated RNA degradation; also recorded: excellent RnpA-inhibitory activity	
12.5 to 20 µM	O=C(O)CCN1C(=O)/C(=C\c2ccc(-c3ccc(Cl)cc3)o2)SC1=S [RNPA-3000]	do not cause human cytotoxicity		moderate antimicrobial activity; also recorded: good antistaphylococcal activity	inhibit RnpA-mediated RNA degradation; also recorded: excellent RnpA-inhibitory activity	did not affect human cell survival
